GI50 and TGI data for ten molecules are collected here from PubChem BioAssay (NCI).

Among the test systems are 786-0 renal; CAKI-1 renal; CCRF-CEM leukemia; MDA-MB-231 breast; MDA-MB-435; NCI-H460 lung; OVCAR-5 ovarian; RXF 393 renal; SF-539 CNS; SR leukemia.
Holding throughout (test): growth of human tumour cells (NCI), 48 h

Several values for one entry are separate records, joined by “and”; a condition that tells them apart may be missing. Equal values may be shown once.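 Compound exposure: 48 hours, 5 concentrations, 96-well plates. The concentration for 50% growth inhibition is given as GI50. TGI marks complete inhibition of growth.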

For the molecule `CN(CCO)CC[C@H](CSc1ccccc1)Nc1ccc(S(=O)(=O)NC(=O)c2ccc(N3CCC([C@@H](O)c4ccccc4-c4ccc(Cl)cc4)CC3)cc2)cc1S(=O)(=O)C(F)(F)F`, the GI50 in the experiment on 786-0 renal is 3.62 µM; in the experiment with CCRF-CEM leukemia, 47.2 nM; in the experiment on MDA-MB-231 breast it was 235 nM; in the experiment on MDA-MB-435 it was 2310 nM; in the experiment with NCI-H460 lung it was 4.74 µM; with OVCAR-5 ovarian it was 4600 nM. Besides, the results for the GI50 in the experiment on RXF 393 renal, in the experiment on SF-539 CNS and in the experiment with SR leukemia were 311 nM, 2.67 µM and 2.23 µM, respectively. Further, the TGI is 10.1 µM in the experiment on 786-0 renal; more than 29.2 µM with CAKI-1 renal; more than 100 µM with CCRF-CEM leukemia; 0.936 µM in the experiment with MDA-MB-231 breast; 6.51 µM with MDA-MB-435; 19.9 µM with NCI-H460 lung. Besides, the TGI in the experiment with OVCAR-5 ovarian is more than 50.4 µM; with RXF 393 renal it was 1.54 µM; with SF-539 CNS, 8 µM; in the experiment with SR leukemia it was 35.7 µM.
With `COc1cc(C(O)CCBr)c(OC)cc1C` (stereo not given), the TGI with 786-0 renal was more than 100 µM; in the experiment with CAKI-1 renal, more than 100 µM; with CCRF-CEM leukemia, more than 52.7 µM; in the experiment on MDA-MB-231 breast, more than 72.7 µM; in the experiment with MDA-MB-435 it was more than 42.6 µM; in the experiment with NCI-H460 lung, more than 100 µM. In addition, the TGI was more than 100 µM with OVCAR-5 ovarian, more than 100 µM in the experiment on RXF 393 renal, 31.3 µM with SF-539 CNS and more than 31.6 µM in the experiment with SR leukemia.
As for `C/C(=N\NC(=S)N1CC2CCC(CC2)C1)c1nccs1`, the TGI in the experiment on 786-0 renal was determined as 7.55 µM; in the experiment on CAKI-1 renal, 14.7 µM; with CCRF-CEM leukemia, 0.445 µM; in the experiment on MDA-MB-231 breast, 19.9 µM; with MDA-MB-435, 12.7 µM; in the experiment on NCI-H460 lung, 3.67 µM. Moreover, the TGI with OVCAR-5 ovarian is 15.8 µM; in the experiment with RXF 393 renal it was 5.39 µM; with SF-539 CNS, 3.57 µM; in the experiment with SR leukemia, 6.91 µM.
Consider `COC12C=C/C(=C(/C(=O)OCc3cncnc3)C(=O)CCCCCCCCC3(OC)C=C/C(=C(/C(=O)OCc4cncnc4)C(=O)CCCCCCCC1)O3)O2`, for which the GI50 with 786-0 renal was 0.433 µM; in the experiment with CAKI-1 renal, 0.667 µM; in the experiment with CCRF-CEM leukemia it was 196 nM; in the experiment with MDA-MB-231 breast, 597 nM; with MDA-MB-435, 99 nM; in the experiment on NCI-H460 lung it was 0.71 µM. The GI50 is 783 nM with OVCAR-5 ovarian, 199 nM in the experiment on RXF 393 renal, 0.952 µM in the experiment on SF-539 CNS and 0.155 µM in the experiment on SR leukemia. For the same molecule, the TGI with 786-0 renal was 1.47 µM; with CAKI-1 renal, 2.11 µM; in the experiment with CCRF-CEM leukemia, 3.79 µM; with MDA-MB-231 breast it was more than 50 µM; with MDA-MB-435, 0.208 µM; in the experiment on NCI-H460 lung it was 1.91 µM. In addition, the TGI with OVCAR-5 ovarian was 2.03 µM; in the experiment with RXF 393 renal, 0.714 µM; with SF-539 CNS, 2.47 µM; in the experiment with SR leukemia, 6.61 µM.
As to `C=C1C(=O)O[C@@H]2C[C@@H](C)[C@@H]3C=CC(=O)[C@@]3(C)[C@@H](O)[C@H]12`, the TGI in the experiment with 786-0 renal stood at 5.4 µM; with CAKI-1 renal, 1.2 µM; in the experiment with CCRF-CEM leukemia, 2.05 µM; with MDA-MB-231 breast it was 7.35 µM; with MDA-MB-435, 3.39 µM; in the experiment with NCI-H460 lung, 4.46 µM. In addition, the TGI is 3.37 µM in the experiment on OVCAR-5 ovarian, 1.35 µM in the experiment with RXF 393 renal, 9.36 µM in the experiment on SF-539 CNS and 2.65 µM in the experiment on SR leukemia.
For the molecule `COc1ccc(-c2cc3c(c4cc(OC)ccc24)C(=O)OC3=O)cc1`, the TGI in the experiment on 786-0 renal, with CAKI-1 renal, with CCRF-CEM leukemia, in the experiment on MDA-MB-231 breast, with MDA-MB-435 and in the experiment on NCI-H460 lung was more than 100 µM in each case. Besides, the TGI in the experiment with OVCAR-5 ovarian, in the experiment with RXF 393 renal and with SR leukemia was more than 100 µM each time.
In the case of `C=C(C)C(O)CCC1(C)C=Cc2c(c(C)cc3c2[nH]c2ccccc23)O1` (stereo not given), the GI50 was 3.88 µM in the experiment with 786-0 renal; 4200 nM in the experiment on CCRF-CEM leukemia; 2.33 µM in the experiment with NCI-H460 lung; 2110 nM in the experiment on OVCAR-5 ovarian; 2780 nM with RXF 393 renal; 3.64 µM in the experiment on SF-539 CNS. Moreover, the GI50 with SR leukemia was 4.43 µM. Moreover, the TGI in the experiment on 786-0 renal is 10.8 µM and 14.2 µM; in the experiment on CCRF-CEM leukemia it was 25 µM and 16.7 µM; in the experiment on MDA-MB-231 breast it was 11.4 µM; in the experiment with MDA-MB-435, 21.3 µM; with NCI-H460 lung, 10.6 µM and 5.86 µM; in the experiment with OVCAR-5 ovarian it was 8.96 µM and 6.03 µM. Also, the TGI is 25 µM and 8.51 µM with RXF 393 renal; 9.45 µM and 13.2 µM with SF-539 CNS; 25 µM and 16.5 µM in the experiment with SR leukemia.
For `CC(C)Cn1cnc2c(SCc3ccc(Cl)cc3Cl)nc(N)nc21`, the TGI in the experiment on 786-0 renal is more than 100 µM; with CAKI-1 renal it was more than 100 µM; in the experiment on MDA-MB-231 breast, more than 100 µM; in the experiment with MDA-MB-435 it was more than 100 µM; in the experiment on NCI-H460 lung it was 35.4 µM; in the experiment on OVCAR-5 ovarian, more than 100 µM. For the same molecule, the TGI was more than 100 µM with RXF 393 renal, 36.5 µM with SF-539 CNS and 25.8 µM in the experiment on SR leukemia.
Consider `O=C(Oc1cccc(F)c1OC(=O)c1cccc(O)c1)c1cccc(O)c1`, for which the GI50 in the experiment with 786-0 renal is 37 µM; in the experiment with CAKI-1 renal it was 7.47 µM; with MDA-MB-231 breast it was more than 100000 nM; with MDA-MB-435, 66700 nM; with NCI-H460 lung, 11.6 µM; in the experiment on OVCAR-5 ovarian, more than 100000 nM. The GI50 in the experiment with RXF 393 renal was 12100 nM; in the experiment on SF-539 CNS, 16.9 µM; with SR leukemia, 7.91 µM. Also, the TGI with 786-0 renal, with CAKI-1 renal, with MDA-MB-231 breast, in the experiment with MDA-MB-435, with NCI-H460 lung and in the experiment with OVCAR-5 ovarian was more than 100 µM each time. The TGI with RXF 393 renal is 73.6 µM; in the experiment with SF-539 CNS, more than 100 µM; with SR leukemia, more than 100 µM.
As to `O=C(Nc1ccc([As](=O)(O)O)cc1)Nc1cccc(Cl)c1Cl`, the TGI with 786-0 renal, with CAKI-1 renal, in the experiment with MDA-MB-231 breast, with MDA-MB-435, in the experiment with NCI-H460 lung and in the experiment with OVCAR-5 ovarian was more than 100 µM in each case. Moreover, the TGI in the experiment with RXF 393 renal is 67.7 µM; with SF-539 CNS it was more than 100 µM; in the experiment on SR leukemia it was more than 100 µM.
